We go through 18 compounds from PubChem BioAssay AID224 (DTP/NCI, 2004).

“And” between values parts separate entries of the source, which are not always exact repeats. Equal entries are not always repeated. Toxic doses and inconclusive results are not listed.

This test deals with P335 leukemia ip, BDF1 mice, survival T/C %. Put plainly: NCI In Vivo Anticancer Drug Screen. Data for tumor model P335 Leukemia (intraperitoneal) in B6D2F1 (BDF1) mice. Conditions: endpoint: mean survival time, higher = longer survival. The procedure:
The antitumor activity of compounds was measured in mice bearing transplantable tumors. Survival or tumor size were measured and the results are expressed as the measurement made in the treated group (T) divided by the measurement made in the vehicle treated control group (C). The tumor model used in this assay is P335 Leukemia (intraperitoneal) in B6D2F1 (BDF1) mice

[1] abbreviates: dose: 18.75 mg/kg/injection, schedule: Q01DX Z (ip), vehicle: carboxymethylcellulose (CMC).
Where [2] appears, read: dose: 150.0 mg/kg/injection, schedule: Q01DX Z (ip), vehicle: carboxymethylcellulose (CMC).
[3] abbreviates: dose: 300.0 mg/kg/injection, schedule: Q01DX Z (ip), vehicle: carboxymethylcellulose (CMC).
Where [4] appears, read: dose: 12.5 mg/kg/injection, schedule: Q01DX Z (sc), vehicle: steriod suspending solution.
The mark [5] stands for this setting: dose: 25.0 mg/kg/injection, schedule: Q01DX Z (sc), vehicle: steriod suspending solution.
Where [6] appears, read: dose: 50.0 mg/kg/injection, schedule: Q01DX Z (sc), vehicle: steriod suspending solution.
Setting [7] is: dose: 100.0 mg/kg/injection, schedule: Q01DX Z (sc), vehicle: steriod suspending solution.
The mark [8] stands for this setting: dose: 16.0 mg/kg/injection, schedule: Q01DX Z (ip), vehicle: saline.

Regarding `COc1ccc(/C=N/NC(N)=S)cc1`, the T/C is, setting by setting: under setting [1], 115 % of control; (dose: 37.5 mg/kg/injection, schedule: Q01DX Z (ip), vehicle: carboxymethylcellulose (CMC)) 108 % of control; (dose: 75.0 mg/kg/injection, schedule: Q01DX Z (ip), vehicle: carboxymethylcellulose (CMC)) 106 % of control; under setting [2], 96 % of control; under setting [3], 115 % of control; (dose: 300.0 mg/kg/injection, schedule: Q01DX Z (ip), vehicle: saline) 94 % of control. For the setting “dose: 600.0 mg/kg/injection, schedule: Q01DX Z (ip), vehicle: saline”, the T/C was 96 % of control.

As to `S=P(N1CC1)(N1CC1)N1CC1`, the T/C was 107 % of control (dose: 0.37 mg/kg/injection, schedule: Q01DX Z (ip), vehicle: saline); 109 % of control (dose: 0.75 mg/kg/injection, schedule: Q01DX Z (ip), vehicle: saline); 104 % of control (dose: 1.5 mg/kg/injection, schedule: Q01DX Z (ip), vehicle: saline); 112 % of control (dose: 3.0 mg/kg/injection, schedule: Q01DX Z (ip), vehicle: saline).

As to `CCC(=O)O[C@H]1CC[C@H]2[C@@H]3CCC4=CC(=O)CC[C@]4(C)[C@H]3CC[C@]12C`, the T/C by setting is: (dose: 23.43 mg/kg/injection, schedule: Q01DX Z (sc), vehicle: steriod suspending solution) 114 % of control; (dose: 60.0 mg/kg/injection, schedule: Q01DX Z (sc), vehicle: steriod suspending solution) 106 % of control; (dose: 93.75 mg/kg/injection, schedule: Q01DX Z (sc), vehicle: steriod suspending solution) 114 % of control; (dose: 300.0 mg/kg/injection, schedule: Q01DX Z (sc), vehicle: steriod suspending solution) 122 % of control; (dose: 375.0 mg/kg/injection, schedule: Q01DX Z (sc), vehicle: steriod suspending solution) 107 % of control; (dose: 1500.0 mg/kg/injection, schedule: Q01DX Z (sc), vehicle: steriod suspending solution) 98 % of control and 113 % of control.

Turning to `O=CCC(O)C(O)C(O)CO` (centres undefined), the T/C is, setting by setting: (dose: 0.8 mg/kg/injection, schedule: Q01DX Z (ip), vehicle: carboxymethylcellulose (CMC)) 104 % of control; (dose: 16.0 mg/kg/injection, schedule: Q01DX Z (ip), vehicle: carboxymethylcellulose (CMC)) 100 % of control; (dose: 31.0 mg/kg/injection, schedule: Q01DX Z (ip), vehicle: carboxymethylcellulose (CMC)) 93 % of control; (dose: 62.5 mg/kg/injection, schedule: Q01DX Z (ip), vehicle: carboxymethylcellulose (CMC)) 114 % of control; (dose: 125.0 mg/kg/injection, schedule: Q01DX Z (ip), vehicle: carboxymethylcellulose (CMC)) 104 % of control.

In the case of `CCn1cnc2c(=S)nc[nH]c21`, the T/C (dose: 15.6 mg/kg/injection, schedule: Q01DX Z (ip), vehicle: carboxymethylcellulose (CMC)) was 96 % of control.

Take `C[C@]12C=CC(=O)C=C1CC[C@@H]1[C@@H]2C(=O)C[C@@]2(C)[C@H]1CC[C@]2(O)C(=O)CO`: the T/C runs as follows: under setting [4], 101 % of control; under setting [5], 108 % of control; under setting [6], 104 % of control; under setting [7], 108 % of control.

Consider `CC(=O)[C@H]1CC[C@H]2[C@@H]3C[C@H](C)C4=CC(=O)CC[C@]4(C)[C@H]3C(=O)C[C@]12C`, for which the T/C is, setting by setting: under setting [4], 120 % of control; under setting [5], 115 % of control; under setting [6], 119 % of control and 124 % of control; under setting [7], 107 % of control; (dose: 200.0 mg/kg/injection, schedule: Q01DX Z (sc), vehicle: steriod suspending solution) 100 % of control; (dose: 400.0 mg/kg/injection, schedule: Q01DX Z (sc), vehicle: steriod suspending solution) 88 % of control.

`CC[C@]1(O)C[C@H]2CN(CCc3c([nH]c4ccccc34)[C@@](C(=O)OC)(c3cc4c(cc3OC)N(C=O)[C@H]3[C@@](O)(C(=O)OC)[C@H](OC(C)=O)[C@]5(CC)C=CCN6CC[C@]43[C@@H]65)C2)C1`: the T/C (dose: 0.12 mg/kg/injection, schedule: Q01DX Z (ip), vehicle: water) is 234 % of control and 101 % of control and 107 % of control; the T/C (dose: 0.5 mg/kg/injection, schedule: Q01DX Z (ip), vehicle: water) is 89 % of control and 90 % of control; the T/C (dose: 1.0 mg/kg/injection, schedule: Q01DX Z (ip), vehicle: water) is 86 % of control.

Take `C[C@]12CC[C@H](OC3OC(CO)C(O)C(O)C3O)C[C@H]1CC[C@@H]1[C@@H]2CC[C@]2(C)[C@@H](C3=CCOC3=O)CC[C@]12O` (some centres undefined): the T/C reads like this: (dose: 0.04 mg/kg/injection, schedule: Q01DX Z (ip), vehicle: saline) 97 % of control; (dose: 0.08 mg/kg/injection, schedule: Q01DX Z (ip), vehicle: saline) 96 % of control; (dose: 0.16 mg/kg/injection, schedule: Q01DX Z (ip), vehicle: saline) 92 % of control; (dose: 0.31 mg/kg/injection, schedule: Q01DX Z (ip), vehicle: saline) 86 % of control.

`CCN(CC)CCNc1ccc(C)c2sc3ccccc3c(=O)c12`: the T/C is 89 % of control (dose: 0.78 mg/kg/injection, schedule: Q01DX Z (ip), vehicle: methylcellulose (MC)); 92 % of control (dose: 6.25 mg/kg/injection, schedule: Q01DX Z (ip), vehicle: methylcellulose (MC)); 89 % of control (dose: 50.0 mg/kg/injection, schedule: Q01DX Z (ip), vehicle: methylcellulose (MC)); 93 % of control (dose: 100.0 mg/kg/injection, schedule: Q01DX Z (ip), vehicle: methylcellulose (MC)).

Regarding `CCCCCCCCCCCCNCCCCCCCCCCCC`, the T/C was 91 % of control (dose: 3.75 mg/kg/injection, schedule: Q01DX Z (ip), vehicle: carboxymethylcellulose (CMC)); 115 % of control (dose: 7.5 mg/kg/injection, schedule: Q01DX Z (ip), vehicle: carboxymethylcellulose (CMC)); 92 % of control (dose: 15.0 mg/kg/injection, schedule: Q01DX Z (ip), vehicle: carboxymethylcellulose (CMC)); 88 % of control (dose: 30.0 mg/kg/injection, schedule: Q01DX Z (ip), vehicle: carboxymethylcellulose (CMC)).

Consider `O=C(Nc1ccc(NC2=NCCN2)cc1)c1ccc(C(=O)Nc2ccc(NC3=NCCN3)cc2)cc1`, for which the T/C (dose: 4.0 mg/kg/injection, schedule: Q01DX Z (ip), vehicle: saline) was 175 % of control; the T/C (dose: 8.0 mg/kg/injection, schedule: Q01DX Z (ip), vehicle: saline) was 208 % of control; the T/C under setting [8] was 170 % of control; the T/C (dose: 32.0 mg/kg/injection, schedule: Q01DX Z (ip), vehicle: saline) is 91 % of control.

Take `Nc1nc(SCc2ccccc2)c2[nH]cnc2n1`: the T/C was 87 % of control (dose: 2.35 mg/kg/injection, schedule: Q01DX Z (ip), vehicle: carboxymethylcellulose (CMC)); 108 % of control (dose: 9.4 mg/kg/injection, schedule: Q01DX Z (ip), vehicle: carboxymethylcellulose (CMC)); 87 % of control under setting [1].

In the case of `NC(=O)c1cn(C2OC(CO)C(O)C2O)c2ncnc(N)c12` (centres undefined), the T/C was 101 % of control (dose: 0.25 mg/kg/injection, schedule: Q01DX Z (ip), vehicle: carboxymethylcellulose (CMC)); 86 % of control (dose: 0.5 mg/kg/injection, schedule: Q01DX Z (ip), vehicle: carboxymethylcellulose (CMC)); 110 % of control (dose: 16.0 micrograms/kg/injection, schedule: Q01DX Z (ip), vehicle: carboxymethylcellulose (CMC)); 104 % of control (dose: 31.0 micrograms/kg/injection, schedule: Q01DX Z (ip), vehicle: carboxymethylcellulose (CMC)); 105 % of control (dose: 63.0 micrograms/kg/injection, schedule: Q01DX Z (ip), vehicle: carboxymethylcellulose (CMC)).

`NC(Cc1ccc(N(CCCl)CCCl)cc1)C(=O)O` (centres undefined): the T/C is, setting by setting: (dose: 2.5 mg/kg/injection, schedule: Q01DX Z (ip), vehicle: carboxymethylcellulose (CMC)) 87 % of control; (dose: 5.0 mg/kg/injection, schedule: Q01DX Z (ip), vehicle: carboxymethylcellulose (CMC)) 94 % of control.

In the case of `COS(C)(=O)=O`, the T/C runs as follows: (dose: 25.0 mg/kg/injection, schedule: Q01DX Z (ip), vehicle: water) 87 % of control; (dose: 50.0 mg/kg/injection, schedule: Q01DX Z (ip), vehicle: water) 101 % of control; (dose: 100.0 mg/kg/injection, schedule: Q01DX Z (ip), vehicle: water) 101 % of control.

`O=NN(CCCl)C(=O)NCCCl`: the T/C under setting [8] was 95 % of control.

As for `O=C1C(NC(=O)C2CCCCC2)=C(N2CC2)C(=O)C(NC(=O)C2CCCCC2)=C1N1CC1`, the T/C by setting is: under setting [2], 103 % of control; under setting [3], 101 % of control; (dose: 600.0 mg/kg/injection, schedule: Q01DX Z (ip), vehicle: carboxymethylcellulose (CMC)) 106 % of control.
